Literature values, collected in patent US20060111369A1, “Synthesis, characterization and biological action of optically active isomers of floxacins” (priority 2004, published 2006).

Tests used:
[1] = tested on: gram-negative and gram-positive bacteria; details: against both gram-negative and gram-positive bacteria
[2] = effects on the CNS
[3] = target: IKr potassium current channel (Homo sapiens, UniProt Q12809)
[4] = according to the FDA

Sequence of IKr potassium current channel (Q12809 whole entry): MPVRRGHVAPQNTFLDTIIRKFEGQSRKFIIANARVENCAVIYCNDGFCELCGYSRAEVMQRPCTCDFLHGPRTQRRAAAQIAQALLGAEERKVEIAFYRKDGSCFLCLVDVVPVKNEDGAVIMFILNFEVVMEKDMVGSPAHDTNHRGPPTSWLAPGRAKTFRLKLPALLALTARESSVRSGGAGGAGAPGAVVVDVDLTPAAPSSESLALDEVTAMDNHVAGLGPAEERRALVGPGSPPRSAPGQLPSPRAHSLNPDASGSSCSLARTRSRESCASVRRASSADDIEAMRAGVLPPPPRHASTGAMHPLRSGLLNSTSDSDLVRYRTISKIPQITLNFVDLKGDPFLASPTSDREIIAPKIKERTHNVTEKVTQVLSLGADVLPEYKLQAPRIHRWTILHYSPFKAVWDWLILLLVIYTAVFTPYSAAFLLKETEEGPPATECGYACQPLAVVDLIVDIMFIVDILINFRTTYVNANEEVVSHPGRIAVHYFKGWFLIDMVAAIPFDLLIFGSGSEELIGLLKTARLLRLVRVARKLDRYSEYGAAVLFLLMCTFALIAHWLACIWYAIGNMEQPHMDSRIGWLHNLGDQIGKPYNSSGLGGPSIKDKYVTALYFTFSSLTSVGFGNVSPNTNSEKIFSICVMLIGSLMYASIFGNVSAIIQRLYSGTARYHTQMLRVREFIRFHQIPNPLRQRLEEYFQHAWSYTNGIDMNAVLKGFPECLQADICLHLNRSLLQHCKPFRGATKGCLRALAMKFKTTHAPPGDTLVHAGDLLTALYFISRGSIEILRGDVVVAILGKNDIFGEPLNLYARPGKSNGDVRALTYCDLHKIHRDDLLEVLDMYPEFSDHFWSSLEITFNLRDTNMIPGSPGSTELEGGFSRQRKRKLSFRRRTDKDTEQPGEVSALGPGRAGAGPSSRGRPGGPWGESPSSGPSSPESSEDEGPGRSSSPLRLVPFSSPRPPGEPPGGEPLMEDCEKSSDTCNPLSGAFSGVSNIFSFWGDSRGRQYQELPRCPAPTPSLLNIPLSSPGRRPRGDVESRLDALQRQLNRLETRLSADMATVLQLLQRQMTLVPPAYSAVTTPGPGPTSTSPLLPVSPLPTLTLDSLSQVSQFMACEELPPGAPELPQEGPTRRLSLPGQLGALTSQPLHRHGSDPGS

For CC1COc2c(N3CCN(C)CC3)c(F)cc3c(=O)c(C(=O)O)cn1c23 (single isomer, unassigned; (-)) [(−)-Ofloxacin], the “activity relative to the racemate” value [1] is given as 8-128 times.
In the case of CC(N)Cc1ccccc1 (centres unmarked) [AP, amphetamine], the “activity of S-isomer relative to R-isomer” value [2] is listed as “approximately five”.
For CN[C@@H](C)Cc1ccccc1 [MAP, methamphetamine], the “activity of S-isomer relative to R-isomer” value [2] is listed as “approximately five”.
In the case of COc1cc(N)c(Cl)cc1C(=O)NC1CCNCC1OC (centres unmarked) [Norcisapride], the “effect on QT interval (in words)” value (human, in vivo) is listed as “does not”.
For COc1cc(N)c(Cl)cc1C(=O)NC1CCN(CCCOc2ccc(F)cc2)CC1OC (centres unmarked) [cisapride], the “effect on QT interval (in words)” value (human, in vivo) is listed as “causes QT prolongation and arrhythmias”.
In the case of COc1c(N2CCNC(C)C2)c(F)cc2c(=O)c(C(=O)O)cn(C3CC3)c12 (centres unmarked) [gatifloxacin], the “effect on QT interval (in words)” value (human, in vivo) is given as “prolong the QT interval”.
In the case of Cc1c(F)c(N2CCNC(C)C2)cc2c1c(=O)c(C(=O)O)cn2C1CC1 (centres unmarked) [grepafloxacin], the “cardiac adverse events in clinical trials (in words)” value (clinical trials) is listed as “Heart-rhythm abnormalities were observed in some patients” and the “effect on QT interval (in words)” value (human, in vivo) is listed as “prolong the QT interval”.
In the case of C[C@H]1COc2c(N3CCN(C)CC3)c(F)cc3c(=O)c(C(=O)O)cn1c23 [levofloxacin], the “effect on QT interval (in words)” value (human, in vivo) is listed as “prolong the QT interval”.
In the case of COc1c(N2C[C@@H]3CCCN[C@@H]3C2)c(F)cc2c(=O)c(C(=O)O)cn(C3CC3)c12 [moxifloxacin], the IKr blocker strength [3] is given as “weak”, the “mean QT prolongation” value (human, in vivo) is given as 6 ms and the “outliners (QT prolongation)” value (human, in vivo) is given as 38.
In the case of C[C@@H]1CN(c2c(F)c(N)c3c(=O)c(C(=O)O)cn(C4CC4)c3c2F)C[C@H](C)N1 [sparfloxacin], the “effect on QT interval (in words)” value (human, in vivo) is given as “prolong the QT interval” and the “cardiac events per 10,000 prescriptions” value [4] is given as 145 per 10,000 prescriptions.
